Source: ChEMBL document CHEMBL4043247, “Design, synthesis and biological evaluation of 8-substituted-6-hydrazonoindolo[2,1-b]quinazolin-12(6H)-one scaffolds as potential cytotoxic agents: IDO-1 targeting molecular docking studies” (Bioorg Med Chem Lett, 2017)

Tests used:
[1] = tested on: HeLa; assay: Cytotoxicity against human HeLa cells after 6 days by MTT assay; type: functional, cell-based; settings: 144 h
[2] = tested on: A549; assay: Cytotoxicity against human A549 cells after 6 days by MTT assay; type: functional, cell-based; settings: A549, 144 h
[3] = tested on: MCF7; assay: Cytotoxicity against human MCF7 cells after 6 days by MTT assay; type: functional, cell-based; settings: MCF7, 144 h
[4] = Antioxidant activity assessed as DPPH radical scavenging activity incubated for 30 mins under dark condition by UV-vis spectrophotometric method; type: functional
[5] = tested on: HEK293; assay: Cytotoxicity against HEK293 cells after 6 days by MTT assay; type: cell-based; settings: Homo sapiens, HEK293, 144 h

Row | SMILES | IC50 [1] | IC50 [2] | IC50 [3] | IC50 [4] | IC50 [5]
1 | COc1cccc(/C=N/N=C2/c3cc([N+](=O)[O-])ccc3-n3c2nc2ccccc2c3=O)c1O | 38 µM | 40.1 µM | 34.2 µM | 28.7 µM | –
2 | N/N=C1/c2cc([N+](=O)[O-])ccc2-n2c1nc1ccccc1c2=O | 50.3 µM | 45.6 µM | 53.6 µM | 27.3 µM | –
3 | COc1cccc(/C=N/N=C2/c3cc(I)ccc3-n3c2nc2ccccc2c3=O)c1O | 29.2 µM | 32.3 µM | 30.4 µM | 10.9 µM | –
4 | N/N=C1/c2cc(Cl)ccc2-n2c1nc1ccccc1c2=O | 55.7 µM | 62.1 µM | 67.5 µM | 19.9 µM | –
5 | CC(/C=C(\O)c1ccccc1)=N\N=C1\c2cc([N+](=O)[O-])ccc2-n2c1nc1ccccc1c2=O | 33.1 µM | 28.4 µM | 31.5 µM | 29.7 µM | –
6 | COc1cccc(/C=N/N=C2/c3cc(-c4ccncc4)ccc3-n3c2nc2ccccc2c3=O)c1O | 24.8 µM | 32.9 µM | 24.8 µM | 4.98 µM | –
7 | N/N=C1/c2cc(I)ccc2-n2c1nc1ccccc1c2=O | 51.1 µM | 43.4 µM | 44.9 µM | 24.9 µM | –
8 | CC(/C=C(\O)c1ccccc1)=N\N=C1\c2cc(Cl)ccc2-n2c1nc1ccccc1c2=O | 23.6 µM | 18.1 µM | 19.7 µM | 12.5 µM | 71 µM
9 | O=C1O[C@H]([C@@H](O)CO)C(O)=C1O [ASCORBIC ACID] | – | – | – | 3.48 µM | –
10 | COc1cccc(/C=N/N=C2/c3cc(Cl)ccc3-n3c2nc2ccccc2c3=O)c1O | 36.6 µM | 40.8 µM | 35.4 µM | 22.2 µM | –
11 | COc1cccc(/C=N/N=C2/c3cc(-c4ccc(C(=O)O)cc4)ccc3-n3c2nc2ccccc2c3=O)c1O | 32.3 µM | 39.2 µM | 37.1 µM | 5.31 µM | –
12 | N/N=C1/c2cc(-c3ccncc3)ccc2-n2c1nc1ccccc1c2=O | 44.1 µM | 47.8 µM | 50.4 µM | 11.2 µM | –
13 | COc1cccc(/C=N/N=C2/c3cc(F)ccc3-n3c2nc2ccccc2c3=O)c1O | 34.3 µM | 31.2 µM | 35.5 µM | 21.1 µM | –
14 | CC(/C=C(\O)c1ccccc1)=N\N=C1\c2cc(I)ccc2-n2c1nc1ccccc1c2=O | 18.8 µM | 20.4 µM | 19.9 µM | 11.6 µM | 82.5 µM
15 | CC(/C=C(\O)c1ccccc1)=N\N=C1\c2cc(-c3ccncc3)ccc2-n2c1nc1ccccc1c2=O | 12.2 µM | 6.01 µM | 11.6 µM | 6.23 µM | 76.1 µM
16 | N/N=C1/c2cc(-c3ccc(C(=O)O)cc3)ccc2-n2c1nc1ccccc1c2=O | 54.3 µM | 62.2 µM | 61.1 µM | 22 µM | –
17 | CC(/C=C(\O)c1ccccc1)=N\N=C1\c2cc(F)ccc2-n2c1nc1ccccc1c2=O | 24.5 µM | 32 µM | 20.4 µM | 20.1 µM | –
18 | N/N=C1/c2cc(F)ccc2-n2c1nc1ccccc1c2=O | 67.7 µM | 44.6 µM | 54.6 µM | 16.4 µM | –
19 | CC(/C=C(\O)c1ccccc1)=N\N=C1\c2cc(-c3ccc(C(=O)O)cc3)ccc2-n2c1nc1ccccc1c2=O | 9.42 µM | 7.19 µM | 9.42 µM | 5.02 µM | 64.1 µM
